The text below walks through data of patent US20160067221A1, “USE OF ERGOTHIONEINE FOR INDUCING ACTIVITY OF NRF2 IN CELL” (China Medical University, priority 2014, published 2016).

Assay type in all cases: cell-based, human
The subject of one data set is HaCaT cells. Kind of data set: Cell viability by MTT assay, with or without UVA irradiation. As for the experimental part: To examine a safety of the ergothioneine and a safe used dose of the ergothioneine to normal cells, HaCaT cells, human keratinocyte cell lines, are treated with different dose of the ergothioneine and then detected a cell viability.
The HaCaT cells are maintained at 37° C. in a humidified atmosphere of 5% CO2 in a culture medium (Dulbecco's modified Eagle medium/high glucose (DMEM) supplemented with 10% heat-inactivated fetal bovine serum (FBS)).
The cell viability is monitored using a method of […] (MTT assay). The HaCaT cells are seeded in a 12-well plate with 1×10^5 cells/well and then maintained at 37° C. in a humidified atmosphere of 5% CO2 untill the HaCaT cells are adhered in the next day. The HaCaT cells are subsequently incubated with or without the ergothioneine, and then maintained at 37° C. in a humidified atmosphere of 5% CO2 for 24 hours, wherein the concentration of the ergothioneine is 125 nM, 250 nM and 500 nM, respectively. Next, the HaCaT cells are washed with phosphate buffered saline (PBS) three times, and then irradiated with the UVA (15 J/cm^2). After the UVA irradiation, the PBS is replaced with the culture medium to culture the HaCaT cells for 4 hours. In next step, the culture medium is removed, the HaCaT cells are washed with PBS thrice, and then 450 μL of 1×MTT agent is added in each well to react at 37° C. in a humidified atmosphere of 5% CO2 for 2 hours. A culture supernatant is removed and re-suspended with 400 μL of isopropanol to dissolve MTT formazan. 200 μL of the supernatant is taken from the well and then added into a 96-well microplate to measure an absorbance at 570 nm.
The cell viability of the HaCaT cells is detected by the MTT assay.

The test system of data set [1] is UVA-irradiated HaCaT cells. Description: Intracellular ROS generation (HDCF-DA / DCF fluorescence). As for the experimental part:
An exposure of the UVA will stimulate cells generating ROS. […] The HDCF-DA is a lipid-soluble fluorescent dye and has a cell membrane permeability. The HDCF-DA will bind to intracellular esterases to form a non-fluorescent 2′,7′-dichlorofluorescin (DCFH). The DCFH is subsequently oxidated by H2O2 to form a fluorescent 2′,7′-dichlorofluorescein (DCF), and then accumulated in a mitochondria. […] The HaCaT cells are subsequently incubated with or without the ergothioneine, and then maintained at 37° C. in a humidified atmosphere of 5% CO2 for 24 hours, wherein the concentration of the ergothioneine is 500 nM. Next, the HaCaT cells are washed with PBS three times, and then irradiated with the UVA (15 J/cm^2). After the UVA irradiation, the PBS is replaced with 1 mL of HDCF-DA (10 μM) in each well to react at 37° C. in the dark for 30 minutes. After the reaction, the fluorescent dye is removed, and the HaCaT cells are washed with PBS thrice to remove the remaining fluorescent dye. The intracellular ROS, as indicated by DCF fluorescence, is measured with the fluorescence microscope and photographed.

The next data set has as its system Nrf2. Kind of data set: Nrf2 nuclear translocation (Western blot of cytosolic and nuclear Nrf2, immunofluorescence staining). As to conditions: for nuclear Nrf2 protein expression / cytosolic Nrf2 protein expression: Western blot. As for the experimental part:
This example next investigates the effect of the ergothioneine on the Nrf2 nuclear translocation. The HaCat cells are pretreated with the ergothioneine for 24 hours, and then exposed to 15 J/cm^2 UVA for 1 hour. The protein expressions of a cytosolic Nrf2 and a nuclear Nrf2 are detected by the Western blot analysis, and a nuclear import of Nrf2 of the HaCaT cell is monitored by an immunofluorescence staining.
FIG. 9 illustrates the effect of the ergothioneine on the protein expressions of the cytosolic Nrf2 and the nuclear Nrf2 of the UVA-irradiated HaCaT cells. FIG. 9-(A) represents the Western blot analysis result. FIG. 9-(B) is the fluorescent photomicrograph of the immunofluorescence staining (200× magnifications). […] In FIG. 9-(B), the nucleus is labelled with 4′,6-diamidino-2-phenylindole (DAPI), and the Nrf2 is labelled with green fluorescence to measure the expression and a localization of the Nrf2.

Data set [2] deals with antioxidant response element (ARE). Kind of data set: ARE luciferase gene reporter assay. Particulars: HaCaT cells treated for 4 hours, vs untreated. The text has this:
The Nrf2 binds to the small Maf after translocating into the nucleus. […] Given that the ergothioneine treatment to the HaCaT cells can promote the Nrf2 translocating into the nucleus; this example next investigates whether the ARE transcriptional activity can be started by using a luciferase gene reporter assay. The luciferase gene reporter assay is transfected a plasmid containing the ARE gene and a luciferase gene into the HaCaT cells, wherein the luciferase gene is a reporter gene. An internal standard of the luciferase gene reporter assay is β-galactosidase, and a luminescence intensity is measured by Dual Light Kit (Applied Biosystems).

For data set [3], the system named is Nrf2 knockdown HaCaT cells. Kind of data set: TUNEL apoptosis in siRNA-transfected HaCaT cells. As for the experimental part:
The siRNA transfection includes steps as follows. The HaCaT cells are seeded in a 6-well plate with 4×10^5 cells/well and then maintained at 37° C. in the humidified atmosphere of 5% CO2 untill the time of the transfection. The day after reaching 40-60% confluence, the culture medium is replaced with 1 mL of FBS-free and antibiotic-free culture medium in each well, and the HaCaT cells are transfected with a siNrf2 or a control siRNA by using Lipofectamine 2000 (Invitrogen, U.S.A.) for 4-6 hours. After the incubation for 4-6 hours, the HaCaT cells are washed with the culture medium supplemented with 10% FBS 2-3 times, and then cultured in the culture medium supplemented with 10% FBS for 12-16 hours.

The mark [4] stands for this setting: ergothioneine alone, vs control.

SMILES strings stand for the structures.

For `C[N+](C)(C)[C@@H](Cc1c[nH]c(=S)[nH]1)C(=O)[O-]` [ergothioneine, 2-mercapto histidine trimethylbetain], the “cell death at respective dose of UVA irradiation” value in the data set on HaCaT cells (500 nM for 2 hours, UVA 5-15 J/cm^2) is “significantly attenuated”. Also, in the data set on HaCaT cells (HaCaT cells, 125-500 nM, 24 hours), the “cytotoxic effects (cell viability)” value was “does not cause any cytotoxic effects”. Further, the cell viability in the data set on HaCaT cells (pretreated with 500 nM, then UVA 15 J/cm^2, cultured 4 hours) turned out to be 75.5%. Besides, the UVA-induced cell death result with HaCaT cells (pretreatment 125-500 nM, UVA 15 J/cm^2) was “attenuates a UVA-induced cell death in a dose-dependent manner”. Besides, the “DCF fluorescence (UVA-induced ROS generation)” value in data set [1] (500 nM 24 hours prior to 15 J/cm^2 UVA) is “ignificantly decreased”. Besides, the ROS generation result in data set [1] (500 nM alone, no UVA) is “non-effect”. The “nuclear Nrf2 protein expression” value in the data set on Nrf2 (ergothioneine 24 hours prior to 15 J/cm^2 UVA, 1 hour) is “significantly increased”; with Nrf2 (setting [4]), “slightly increased”. In addition, the “fluorescence intensity of the Nrf2” value in the data set on Nrf2 (ergothioneine alone, immunofluorescence staining) is “slightly increased”. The “cytosolic Nrf2 protein expression” value is “significantly decreased” in the data set with Nrf2 (setting [4]) and “significantly decreased” in the data set with Nrf2 (ergothioneine prior to UVA irradiation, vs control). Moreover, in the data set on Nrf2 (ergothioneine prior to UVA irradiation, immunofluorescence staining), the “fluorescence intensity of the nuclear Nrf2” value is reported as “pronounced fluorescence intensity of the nuclear Nrf2”. Moreover, in data set [2], the “luciferase activity derived from the ARE promoter” value is “increased”. Moreover, in data set [3] (Nrf2 siRNA, ergothioneine pretreatment, UVA), the “UVA-induced apoptosis (TUNEL)” value is “unable to improve the UVA-induced apoptosis”. The “apoptosis (TUNEL)” value in data set [3] (control siRNA, ergothioneine prior to UVA, vs UVA alone) is “significantly decreased”.
